# Where “and” joins values, the source holds several entries; their conditions need not be identical. Equal values may be shown once.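 Interpolation was linear, between the two tested concentrations surrounding the appropriate level; five concentrations were tested over 48 hours in 96-well plates. GI50 = concentration required for 50% inhibition of growth. TGI is the concentration that stops growth completely.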
# How the values were obtained:
# Test in all cases: NCI tumour cell line growth inhibition, 48 h
# CCRF-CEM leukemia = test system: CCRF-CEM leukemia
# HCT-15 colon = test system: HCT-15 colon
# MALME-3M melanoma = test system: MALME-3M melanoma
# NCI-H23 lung = test system: NCI-H23 lung
# OVCAR-5 ovarian = test system: OVCAR-5 ovarian
# SF-268 CNS = test system: SF-268 CNS
# SK-MEL-2 melanoma = test system: SK-MEL-2 melanoma
# SK-MEL-28 melanoma = test system: SK-MEL-28 melanoma
# TK-10 renal = test system: TK-10 renal
# UACC-62 melanoma = test system: UACC-62 melanoma
SMILES,GI50 (CCRF-CEM leukemia),TGI (CCRF-CEM leukemia),GI50 (HCT-15 colon),TGI (HCT-15 colon),GI50 (MALME-3M melanoma),TGI (MALME-3M melanoma),GI50 (NCI-H23 lung),TGI (NCI-H23 lung),GI50 (OVCAR-5 ovarian) [µM],TGI (OVCAR-5 ovarian) [µM],GI50 (SF-268 CNS) [µM],TGI (SF-268 CNS) [µM],GI50 (SK-MEL-2 melanoma),TGI (SK-MEL-2 melanoma) [µM],GI50 (SK-MEL-28 melanoma),TGI (SK-MEL-28 melanoma),GI50 (TK-10 renal),TGI (TK-10 renal),GI50 (UACC-62 melanoma),TGI (UACC-62 melanoma)
CCCCC(CC)COC(=O)C[N+](C)(C)CCOC(c1ccccc1)c1ccccc1 (configuration not stated),3.17 µM,11.7 µM,13.8 µM,31.2 µM,1.49 µM,3.09 µM,3.77 µM,15.9 µM,4.11,15.8,2.01,4.77,1.95 µM,4.13,1.8 µM,3.31 µM,4.26 µM,17.6 µM,1.67 µM,3.16 µM
CCOC(=O)/C(C)=C(/O)C(=O)OCC,–,> 100 µM,–,> 100 µM,–,> 100 µM,–,> 100 µM,–,> 100,–,> 100,–,> 100,–,> 100 µM,–,> 100 µM,–,> 100 µM
O=C(O)CNS(=O)(=O)c1ccc(NC(=O)c2ccc([N+](=O)[O-])cc2)cc1,–,> 100 µM,–,> 100 µM,–,> 100 µM,–,> 100 µM,–,> 100,–,> 100,–,> 100,–,> 100 µM,–,> 100 µM,–,> 100 µM
N#Cc1cc(-c2cc3ccccc3o2)oc1N,3.72 µM,21.2 µM,3.35 µM,13 µM,2.45 µM,6.98 µM,3.9 µM,22.8 µM,4.34,30.6,4.73,20.1,1.29 µM,4.49,6.54 µM,19.7 µM,6.61 µM,34.8 µM,3.79 µM,17.2 µM
Cc1nnc(NS(=O)(=O)c2ccc(N=Nc3cc(N=Nc4ccc(S(=O)(=O)Nc5nnc(C)s5)cc4)c4c(NC(=O)C(Cl)Cl)cccc4c3OC(=O)C(Cl)Cl)cc2)s1 (tested in a mixture with another compound),–,> 100 µM,–,> 100 µM,–,65.3 µM,–,49.5 µM,–,55.5,–,> 100,–,64.1,–,48.5 µM,–,95.6 µM,–,89.1 µM
Cc1cc(C(=O)Nc2ccc3cc(CN4CCOCC4)ccc3n2)c(C)n1-c1ccccc1,1.86 µM,> 93.7 µM,2.41 µM,20.4 µM,1.89 µM,8.66 µM,0.974 µM,6.77 µM,10.2,57.6,3.35,35.7,2.44 µM,5.89,2.91 µM,8.91 µM,4.75 µM,58.5 µM,1.38 µM,3.88 µM
O=S(=O)(c1ccc(NC(=S)NC23CC4CC(CC(C4)C2)C3)cc1)N1CCCCC1,3.13 µM,> 100 µM,3.22 µM,> 100 µM,2.76 µM,8.3 µM,3.5 µM,> 100 µM,3.53,> 100,4.12,> 100,3.29 µM,7.39,5.23 µM,> 100 µM,3.27 µM,64.1 µM,3.22 µM,> 100 µM
CCCCCCCCCCCCCCCC(=O)OCC(C[As](=O)(O)O)OC(=O)CCCCCCCCCCCCCCC (configuration not stated),–,> 100 µM,–,> 100 µM,–,> 100 µM,–,> 100 µM,–,> 100,–,> 100,–,> 100,–,> 100 µM,–,> 100 µM,–,> 100 µM
COc1cc(/C=C/c2ccc(OC)c(O)c2)cc(OC)c1,–,15.2 µM,–,24.2 µM,–,38 µM,–,12.5 µM,–,89.1,–,80.5,–,29.8,–,24.5 µM,–,91.4 µM,–,15.1 µM
COc1ccc(C(=O)c2cc(C)c(OC)c(C)c2)cc1OC(=O)CCl,< 0.01 µM,> 100 µM,< 0.01 µM,> 100 µM,13.1 µM,59.6 µM,< 0.0293 µM,> 100 µM,1.71,> 100,< 0.011,> 100,< 0.01 µM,> 100,0.0396 µM,> 100 µM,34.7 µM,> 100 µM,0.0402 µM,> 100 µM
O=C(Nc1ccccc1-c1nc2ccccc2[nH]c1=O)c1ccccc1,–,> 100 µM,–,> 100 µM,–,92.7 µM,–,> 100 µM,–,> 100,–,64.8,–,56,–,> 100 µM,–,31.6 µM,–,75.2 µM
CC1=[N+]([O-])c2ccccc2C(=O)C1=O,–,74.2 µM,–,> 100 µM,–,> 100 µM,–,> 100 µM,–,> 100,–,> 100,–,> 100,–,> 100 µM,–,> 100 µM,–,> 100 µM
NC(=O)c1cc(Cl)ccc1NC(=O)/C=C/c1ccccc1,2.96 µM,> 100 µM,2.38 µM,> 100 µM,3.18 µM,> 100 µM,5.62 µM,> 100 µM,–,> 58.7,5.96,> 60.4,3.95 µM,> 39.3,2.58 µM,> 100 µM,7.31 µM,> 95.1 µM,2.18 µM,> 100 µM
O=C1/C(=C(/c2ccccc2)N2CCOCC2)Cc2ccccc21,0.467 µM,2.67 µM,1.55 µM,5.02 µM,1.28 µM,3.08 µM,2.64 µM,8.38 µM,3.26,9.57,2.29,6.35,2.03 µM,6.34,1.45 µM,2.85 µM,1.29 µM,2.66 µM,1.79 µM,4.24 µM
CC1=CC(=O)C=CC1=O,2.73 µM,10.5 µM,19.1 µM and 13.2 µM,38 µM and 29 µM,13.1 µM and 13.7 µM,29.7 µM and 27.8 µM,26.6 µM and 20.5 µM,60 µM,21.4,39.5,16.5,31.2,50.7 µM and 23.8 µM,66.3,16.9 µM and 17.9 µM,30.8 µM and 32.6 µM,20.8 µM and 16.9 µM,36.4 µM and 30.7 µM,28.2 µM and 13.7 µM,27.2 µM
CCCC(CCC)NCC(O)c1cc(-c2ccc(C(F)(F)F)cc2)nc(C(F)(F)F)c1 (configuration not stated),2.46 µM,5.7 µM,1.77 µM,3.53 µM,2.05 µM,4.02 µM,1.58 µM,3.15 µM,1.55,2.95,1.86,3.38,2.27 µM,3.92,1.92 µM,3.45 µM,1.98 µM,3.44 µM,1.72 µM,3.25 µM
Cc1cc(C)c(NC(=O)c2sc3nc4c(cc3c2N)C(=O)CCC4)c(C)c1,3.15 µM,> 100 µM,2.59 µM,> 100 µM,1.83 µM,> 100 µM,3.9 µM,> 100 µM,7.98,> 100,6.69,> 100,0.468 µM,38.7,5.9 µM,> 100 µM,4.5 µM,> 87.9 µM,1.31 µM,> 100 µM
CN(C)CCNc1ccc(CO)c2oc3ccc(O)cc3c(=O)c12,–,34.1 µM,–,29.9 µM,–,26.6 µM,–,24.6 µM,–,38,–,42.2,–,30.7,–,32 µM,–,69 µM,–,25 µM
Cc1ccc(NC(=O)c2cccc(C(C)(C)C#N)c2)cc1Nc1ccc2ncn(C)c(=O)c2c1,5.36 µM,> 100 µM,3.11 µM,> 100 µM,–,0.0434 µM,0.304 µM,> 100 µM,0.123,> 100,6.01,> 100,0.0692 µM,8.69,0.0192 µM,–,2.9 µM,> 100 µM,0.0275 µM,–
Cc1ccc(N=C/C=C(\Nc2ccc(C)cc2)c2ccc(Cl)cc2)cc1,1.95 µM,33.5 µM,5.77 µM,> 100 µM,9.27 µM,48.4 µM,11 µM,32.3 µM,24.4,94.9,13.4,40.2,29.9 µM,> 100,4.99 µM,27.1 µM,12.3 µM,42.2 µM,7.31 µM,39.8 µM
COc1ccc(C(=O)c2cc(C)c(OC)c(C)c2)c(OC)c1O,0.0323 µM,> 100 µM,0.0214 µM,> 100 µM,0.0739 µM,> 100 µM,0.0879 µM,> 100 µM,4.9,> 100,0.207,> 100,0.211 µM,> 100,1.42 µM,> 100 µM,25 µM,> 100 µM,0.638 µM,> 100 µM
COCC[C@H]1CCC/C=C/[C@@H]2C[C@H](O)C[C@H]2[C@H](O)/C=C/C(=O)O1,0.322 µM,> 100 µM,0.314 µM,> 100 µM,0.0344 µM,0.228 µM,0.0858 µM,0.858 µM,0.247,> 100,0.0488,> 100,0.177 µM,0.636,0.0345 µM,0.153 µM,0.18 µM,0.63 µM,0.0425 µM,> 100 µM
COc1cc(Cc2nccc3cc(OC)c(OC)cc23)c(C(C)=O)cc1OC,15.4 µM and 16.2 µM,98.2 µM and 63 µM,195 µM and 249 µM,300 µM and > 750 µM,72.1 µM and 22.6 µM,64.1 µM and 158 µM,67.1 µM,300 µM and > 750 µM,204,> 750,–,419,–,300,20.4 µM and 142 µM,42.1 µM and 331 µM,–,341 µM,–,219 µM and > 750 µM
Nc1ccccc1C#C/C=C\C#Cc1ccccc1N,3.93 µM,32.4 µM,14.1 µM,33.3 µM,7.86 µM,32.9 µM,18.6 µM,62.9 µM,10.9,40.7,10.7,37.9,16.3 µM,60.7,28.7 µM,82 µM,8.33 µM,36.1 µM,11.4 µM,27.5 µM
CN(C)CCC1(C2=CCCC2)CC/C(=C\c2ccc(Cl)cc2)C1=O (configuration not stated),–,> 22.7 µM,–,16.6 µM,–,15.4 µM,–,29.3 µM,–,25.7,–,26.1,–,14.2,–,7.4 µM,–,23.3 µM,–,9.05 µM
CC1=CC(C)(C)N=C2SC(c3ccc(N)cc3)=NN12,–,> 72.4 µM,–,> 58.7 µM,–,> 100 µM,–,> 100 µM,–,> 100,–,> 100,–,> 100,–,> 100 µM,–,> 100 µM,–,> 100 µM
O=C(Nc1n[nH]c2cc(-c3ccccc3)ccc12)C1CC1,8.59 µM,> 25 µM,4.03 µM,> 25 µM,> 17.7 µM,> 25 µM,16.8 µM,> 25 µM,> 25,> 25,> 21.2,> 25,> 25 µM,> 25,> 22.1 µM,> 25 µM,> 25 µM,> 25 µM,> 25 µM,> 25 µM
O=C1C2C3C=C4c5ccccc5N(c5ccccc5)C4(C2C(=O)N1c1ccc([N+](=O)[O-])cc1)[C@H]1C(=O)N(c2ccc([N+](=O)[O-])cc2)C(=O)[C@@H]31 (some centres not stated),–,> 100 µM,–,> 100 µM,–,> 100 µM,–,> 100 µM,–,> 100,–,> 100,–,> 100,–,> 100 µM,–,> 100 µM,–,> 100 µM
